Laboratory results as given in US8492384B2 (Korea Institute of Science and Technology, priority 2008, dated 2013).

Key:
Type in all cases: cell-based
[1] = target: T1, α1G T-type calcium channels (Homo sapiens, UniProt O43497); test: T-type calcium channel activity using electrophysiological whole-cell patch-clamp technique; settings: percent inhibition of inward peak currents, HEK293 cells expressing α1G, head prints 100 μM
T1 construct: host or cells: HEK293

[2] = target: T1, α1G T-type calcium channels; test: as above; settings: HEK293 cells expressing α1G T-type calcium channels
Description: (§1) The novel compounds of the present invention presented as the formula 1 were tested for their antagonistic activities against T-type calcium channels using the methods described below. More specifically, the synthesized compounds were screened as follows: First, as a primary screening, the compounds having 40% or higher of antagonistic activities against T-type calcium channels were selected using the FDSS6000, a high throughput screening (HTS) device. Then, as a secondary screening, the IC50 (effective inhibitory concentration) values were obtained using the electrophysiological methods.
2) Methods for the Measurements of T-Type Calcium Channel Activity Using an Electrophysiological Whole-Cell Patch-Clamp Technique
HEK293 cells stably expressing T-type calcium channels were cultured in DMEM (Dulbecco's modified Eagle's medium) containing 10% (v/v) fetal bovine serum and 1% penicillin/streptomycin (v/v) in humidified 5% CO2 at 36.5° C. Cells expressing α1GT-type calcium channels were selected using G-418 (0.5 mg/mL) in the culture medium. The culture medium was replaced with a fresh one every 3-4 days, and cells were subcultured every week.
Cells were seeded onto the coverglass coated with poly-L-lysine (0.5 mg/mL) for the measurements of T-type calcium channel activity 2-7 days prior to the recordings. Whole-cell recordings of T-type calcium channel currents were performed using an EPC-9 patch clamp amplifier (HEKA, Germany). Whole-cell currents were recorded using micropipettes with resistance of 3-4 MΩ with the pipette (intracellular) solution containing (in mM): 130 KCl, 11 EGTA, 5 Mg-ATP, and 10 HEPES, pH to 7.4 and with the bath (extracellular) solution containing (in mM): 140 NaCl, 2 CaCl2, and 10 HEPES, pH to 7.4. The inward currents of T-type calcium channels were evoked by the test pulses of −30 mV for 50 ms at a holding potential of −100 mV every 10 seconds.
Each compound was dissolved in dimethylsulfoxide (DMSO) as 10 mM stock solutions and diluted in the bath solution to 10 μM (containing 0.1% DMSO). […] More specifically, each compound was perfused to the bath for about 30-60 seconds, and the inhibition of the inward peak currents by a test compound was calculated as a percent inhibition from which the IC50 values were determined.

[3] = target: T1, α1G T-type calcium channels; test: T-type calcium channel activity using the FDSS6000 (HTS, Fluo-3/AM, KCl-induced intracellular calcium change); settings: percent inhibition at 10 μM, HEK293 cells stably expressing α1G T-type calcium channels and Kir2.1, KCl 75 mM activation; for inhibition at 10 µM: read-out: FDSS (%, 10 μM)
Description: as §1
1) Methods for the Measurements of T-Type Calcium Channel Activity Using the FDSS6000
12 to 24 hours prior to the FDSS-based HTS assay, HEK293 cells stably expressing both α1G T-type calcium channels and Kir2.1 channels (α1G cell line: KCTC 10519BP, KRIBB (Korea Research Institute of Bioscience and Biotechnology) (GENE BANK) were seeded onto the 96-well plate coated with poly-L-lysine (0.05 mg/mL) at a density of 4×10^4 cells/well using a cell distributor (Titertek, USA). On the following day, the cells attached onto the 96-well plate were washed three times with a HEPES-buffered solution (150 mM NaCl, 5 mM KCl, 1 mM MgCl2, 2 mM CaCl2, 10 mM HEPES, 10 mM glucose, and pH 7.4) using an automatic 96-well plate washer (BioTek, USA), and then labeled with a fluorescent calcium indicator dye, Fluo-3/AM (5 μM) and 0.001% Pluronic F-127 in a HEPES-buffered solution at room temperature for 1 hour and then washed again with a HEPES-buffered solution twice. 10 minutes prior to the FDSS6000 measurements, the cells was washed with a HEPES-buffered solution containing 10 mM CaCl2 once and the final volume was adjusted.
In addition to the 96-well plates with cells, the two drug plates were prepared: one containing KCl (final concentration of 75 mM) for the activation of T-type calcium channels, and the other containing testing compounds (blocking agents of T-type calcium channels). Since most cell-based HTS devices are provided with a liquid application system for drug injection but not with a liquid absorption system, the KCl solution and the blocking agents for screening were prepared at concentrations five times higher than the final concentrations in the 10 mM CaCl2 HEPES-buffered solution, and then diluted in the cell plate, and the activities were measured. The specific method of the FDSS6000 measurements is as follows: For the FDSS6000 measurements, after the 20-sec baseline recordings, cells were preincubated with drugs for 75 seconds and the change in intracellular calcium concentration induced by KCl was measured. The percent inhibition by a test compound was calculated as integrated values of 340/380 fluorescent ratio of untreated and drug-treated cells. The control drug was 10 μM of Mibefradil®.
In details, cells were selectively exposed to 340 nm and 380 nm light excited by 4 xenon lamps installed in FDSS6000 using a computer-controlled filter wheel. The emitter fluorescence light through a 515 nm long-pass filter was passed by a freezing digital CCD camera mounted on the device. Data were collected every 1.23 seconds, and an average value of 340/380 fluorescent ratio for each well was obtained using a digital fluorescent analyzer. Data acquisition and analysis were performed using a program provided by Hamamatsu Photonics.

T1 sequence (O43497 whole entry): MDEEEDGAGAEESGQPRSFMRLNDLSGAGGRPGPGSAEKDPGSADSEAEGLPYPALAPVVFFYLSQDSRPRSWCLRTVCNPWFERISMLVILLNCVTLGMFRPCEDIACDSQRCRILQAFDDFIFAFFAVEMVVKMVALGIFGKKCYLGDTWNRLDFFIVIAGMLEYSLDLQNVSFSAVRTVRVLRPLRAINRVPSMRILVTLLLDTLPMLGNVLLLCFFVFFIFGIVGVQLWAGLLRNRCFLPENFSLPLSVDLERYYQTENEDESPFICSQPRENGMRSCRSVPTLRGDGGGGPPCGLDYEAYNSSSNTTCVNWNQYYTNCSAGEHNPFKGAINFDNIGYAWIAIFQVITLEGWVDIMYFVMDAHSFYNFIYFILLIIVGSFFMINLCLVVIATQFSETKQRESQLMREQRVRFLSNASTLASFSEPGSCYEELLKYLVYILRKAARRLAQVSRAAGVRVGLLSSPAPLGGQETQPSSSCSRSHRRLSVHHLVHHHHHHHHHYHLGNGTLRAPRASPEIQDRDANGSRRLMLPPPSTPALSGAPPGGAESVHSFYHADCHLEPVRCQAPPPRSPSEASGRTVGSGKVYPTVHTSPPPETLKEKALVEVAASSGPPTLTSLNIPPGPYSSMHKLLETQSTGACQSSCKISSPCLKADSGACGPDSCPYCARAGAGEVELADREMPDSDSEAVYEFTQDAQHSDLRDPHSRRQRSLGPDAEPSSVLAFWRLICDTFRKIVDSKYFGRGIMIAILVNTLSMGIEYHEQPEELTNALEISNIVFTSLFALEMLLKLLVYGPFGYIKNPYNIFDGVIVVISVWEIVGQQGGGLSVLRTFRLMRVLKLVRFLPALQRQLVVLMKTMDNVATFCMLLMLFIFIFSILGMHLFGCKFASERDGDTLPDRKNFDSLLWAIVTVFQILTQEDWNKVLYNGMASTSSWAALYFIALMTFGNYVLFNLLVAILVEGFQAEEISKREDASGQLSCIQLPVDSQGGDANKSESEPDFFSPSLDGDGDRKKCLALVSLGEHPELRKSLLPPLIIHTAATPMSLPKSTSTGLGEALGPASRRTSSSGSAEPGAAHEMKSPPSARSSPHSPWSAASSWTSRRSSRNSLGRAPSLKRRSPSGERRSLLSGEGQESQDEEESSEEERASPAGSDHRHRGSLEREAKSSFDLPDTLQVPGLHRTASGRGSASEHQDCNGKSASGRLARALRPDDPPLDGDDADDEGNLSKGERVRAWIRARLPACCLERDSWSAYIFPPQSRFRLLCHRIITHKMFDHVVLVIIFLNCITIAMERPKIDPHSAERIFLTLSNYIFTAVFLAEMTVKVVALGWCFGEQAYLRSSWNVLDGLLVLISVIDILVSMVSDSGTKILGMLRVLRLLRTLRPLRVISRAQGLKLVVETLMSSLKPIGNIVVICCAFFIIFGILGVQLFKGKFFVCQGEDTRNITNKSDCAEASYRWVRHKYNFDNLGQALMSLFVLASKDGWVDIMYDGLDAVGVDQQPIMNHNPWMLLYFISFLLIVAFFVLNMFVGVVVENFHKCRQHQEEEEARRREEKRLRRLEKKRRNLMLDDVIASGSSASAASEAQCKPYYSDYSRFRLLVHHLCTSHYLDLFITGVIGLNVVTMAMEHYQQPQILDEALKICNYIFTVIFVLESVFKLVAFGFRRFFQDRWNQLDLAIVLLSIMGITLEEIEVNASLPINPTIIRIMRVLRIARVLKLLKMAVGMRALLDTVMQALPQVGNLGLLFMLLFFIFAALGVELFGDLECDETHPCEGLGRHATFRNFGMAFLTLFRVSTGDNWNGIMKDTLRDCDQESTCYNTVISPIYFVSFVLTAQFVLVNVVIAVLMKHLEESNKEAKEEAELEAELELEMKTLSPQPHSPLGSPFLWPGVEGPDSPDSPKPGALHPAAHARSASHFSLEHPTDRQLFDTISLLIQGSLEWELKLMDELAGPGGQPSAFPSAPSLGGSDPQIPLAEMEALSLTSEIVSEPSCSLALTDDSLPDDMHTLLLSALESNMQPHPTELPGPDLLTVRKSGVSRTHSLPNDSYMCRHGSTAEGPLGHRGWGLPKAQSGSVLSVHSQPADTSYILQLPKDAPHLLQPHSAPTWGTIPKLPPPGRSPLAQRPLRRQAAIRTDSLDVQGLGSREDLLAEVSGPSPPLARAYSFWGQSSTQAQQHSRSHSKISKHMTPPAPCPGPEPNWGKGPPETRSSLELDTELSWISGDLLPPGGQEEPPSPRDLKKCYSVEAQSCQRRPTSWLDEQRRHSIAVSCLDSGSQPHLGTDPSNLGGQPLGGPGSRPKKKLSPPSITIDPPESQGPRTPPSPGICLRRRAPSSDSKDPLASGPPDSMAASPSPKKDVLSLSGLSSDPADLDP

Row | HEK293 (%, 100 μM) [1] | IC50 [2] | FDSS (%, 10 μM) [3] | inhibition at 100 µM [1] | inhibition at 10 µM [3] | Molecule
1 | 64.7 ± 2.2% | 5.46 ± 0.57 µM | 47.90% | – | – | 1-N-[4-(4-chlorophenyl)(phenyl)methylpiperazin-1-yl]carbonylethyl-4-methylimidazole [Compound No. 45]
2 | 89.1 ± 1.3% | 2.11 ± 0.11 µM | 58.64% | – | – | 1-N-{2-[4-(4-chlorophenyl) (phenyl)methylpiperazin-1-yl]ethyl}carbamoylethyl-2-phenylimidazole [Compound No. 63]
3 | 95.8 ± 0.7% | 1.39 ± 0.07 µM | 60.48% | – | – | 1-N-{2-[4-(4-chlorophenyl) (phenyl)methylpiperazin-1-yl]ethyl}carbamoylethyl-4-phenylimidazole [Compound No. 64]
4 | – | 4.89 ± 0.44 µM | – | 64.7 ± 2.2% | 55.5% | Cc1cccc(N2CCN(C(=O)CCn3cnc(-c4ccccc4)c3)CC2)c1C [Compound No. 3, 1-N-[4-(2,3-dimethylphenyl)piperazin-1-yl]carbonylethyl-4-phenylimidazole]
5 | – | 3 ± 0.26 µM | – | 86.5 ± 1.8% | 64.7% | O=C(CCn1cnc(-c2ccccc2)c1)N1CCN(Cc2ccc(Cl)cc2)CC1 [Compound No. 5, 1-N-[4-(4-chlorobenzyl)piperazin-1-yl]carbonylethyl-4-phenylimidazole]
6 | – | 3.67 ± 0.23 µM | – | 71.1 ± 3.3% | 54.7% | O=C(CCn1ccnc1-c1ccccc1)N1CCN(C(c2ccccc2)c2ccccc2)CC1 [Compound No. 13, 1-N-(4-diphenylmethylpiperazin-1-yl)carbonylethyl-2-phenylimidazole]
7 | – | 9.36 ± 0.65 µM | – | 50 ± 0.6% | 39.3% | O=C(CCn1ccnc1-c1ccccc1)N1CCN(Cc2ccc(Cl)c(Cl)c2)CC1 [Compound No. 18, 1-N-[4-(3,4-dichlorobenzyl)piperazin-1-yl]carbonylethyl-2-phenylimidazole]
8 | – | 22.3 ± 1.46 µM | – | 22.9 ± 1.4% | 45.2% | O=C(CCn1cnc(-c2ccccc2)c1)N1CCN(c2ccccc2F)CC1 [Compound No. 20, 1-N-[4-(2-fluorophenyl)piperazin-1-yl]carbonylethyl-4-phenylimidazole]
9 | – | 4.35 ± 0.14 µM | – | 74.3 ± 1.3% | 63.7% | O=C(CCn1cnc(-c2ccccc2)c1)N1CCN(c2cccc(Cl)c2)CC1 [Compound No. 25, 1-N-[4-(3-chlorophenyl)piperazin-1-yl]carbonylethyl-4-phenylimidazole]
10 | – | 8.66 ± 0.12 µM | – | 51.9 ± 0.1% | 49.6% | O=C(CCn1cnc(-c2ccccc2)c1)NCCN1CCN(C(c2ccccc2)c2ccccc2)CC1 [Compound No. 55, 1-N-[2-(4-diphenylmethylpiperazin-1-yl)ethyl]carbamoylethyl-4-phenylimidazole]
11 | – | 14.5 ± 0.68 µM | – | 37.6 ± 0.5% | 49.8% | O=C(CCn1ccnc1-c1ccccc1)NCCN1CCN(c2ccc(F)cc2)CC1 [Compound No. 74, 1-N-{2-[4-(4-fluorophenyl)piperazin-1-yl]ethyl}carbamoylethyl-2-phenylimidazole]
